In test [1] the target is Human M3 receptor (Homo sapiens, UniProt P20309). Conditions: read-out: M3 binding affinity.
Test [2] addresses Human β2 adrenoceptor (Homo sapiens, UniProt P07550). The following applies: read-out: B2 binding affinity.

Human β2 adrenoceptor, sequence (P07550 whole entry): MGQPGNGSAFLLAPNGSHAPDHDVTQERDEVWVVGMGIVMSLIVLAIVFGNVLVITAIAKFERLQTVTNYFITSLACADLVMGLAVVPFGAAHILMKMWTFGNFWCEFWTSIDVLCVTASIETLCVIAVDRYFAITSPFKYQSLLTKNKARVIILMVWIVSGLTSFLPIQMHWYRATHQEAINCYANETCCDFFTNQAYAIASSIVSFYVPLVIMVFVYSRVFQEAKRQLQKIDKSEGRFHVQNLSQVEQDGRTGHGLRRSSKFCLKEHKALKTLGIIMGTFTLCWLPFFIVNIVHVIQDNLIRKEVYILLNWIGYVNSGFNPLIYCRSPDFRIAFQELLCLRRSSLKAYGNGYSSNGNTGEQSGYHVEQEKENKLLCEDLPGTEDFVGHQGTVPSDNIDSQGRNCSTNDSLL
Human M3 receptor, sequence (P20309 whole entry): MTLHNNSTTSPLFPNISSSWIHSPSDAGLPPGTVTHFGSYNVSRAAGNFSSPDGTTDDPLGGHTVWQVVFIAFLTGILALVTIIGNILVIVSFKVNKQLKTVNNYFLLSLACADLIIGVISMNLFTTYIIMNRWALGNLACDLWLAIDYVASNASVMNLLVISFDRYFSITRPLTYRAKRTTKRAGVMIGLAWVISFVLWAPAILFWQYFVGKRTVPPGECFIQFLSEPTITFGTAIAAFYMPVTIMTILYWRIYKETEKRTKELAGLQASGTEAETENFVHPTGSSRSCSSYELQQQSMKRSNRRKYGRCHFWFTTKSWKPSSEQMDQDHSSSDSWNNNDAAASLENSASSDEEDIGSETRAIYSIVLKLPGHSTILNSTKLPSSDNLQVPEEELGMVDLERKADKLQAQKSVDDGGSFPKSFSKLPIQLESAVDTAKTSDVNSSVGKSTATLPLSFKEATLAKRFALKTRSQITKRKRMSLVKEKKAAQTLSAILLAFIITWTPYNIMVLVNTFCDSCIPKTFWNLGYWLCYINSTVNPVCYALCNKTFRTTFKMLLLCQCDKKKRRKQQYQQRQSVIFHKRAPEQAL

For `O=C(COc1cccc([C@](O)(C(=O)OCC2CCN(Cc3ccccc3)CC2)c2ccccc2)c1)N[C@H]1C[C@H](NC(=O)c2ccc(CNC[C@H](O)c3ccc(O)c4[nH]c(=O)ccc34)c(Cl)c2)C1` [Compound 135, (1-benzylpiperidin-4-yl)methyl (S)-2-(3-(2-(((1R,3S)-3-(3-chloro-4-((((R)-2-hydroxy-2-(8-hydroxy-2-oxo-1,2-dihydroquinolin-5-yl)ethyl)amino)methyl)benzamido)cyclobutyl)amino)-2-oxoethoxy)phenyl)-2-hydroxy-2-phenylacetate], the IC50 in test [1] was 0.3 to 3 nM; in test [2], less than 0.3 nM.
For `O=C(COc1cccc([C@](O)(C(=O)OCC2CCN(Cc3ccccc3)CC2)c2ccccc2)c1)N[C@H]1C[C@H](NC(=O)c2ccc(CNC[C@H](O)c3ccc(O)c4[nH]c(=O)ccc34)cc2Br)C1` [Compound 136, (1-benzylpiperidin-4-yl)methyl (S)-2-(3-(2-(((1R,3S)-3-(2-bromo-4-((((R)-2-hydroxy-2-(8-hydroxy-2-oxo-1,2-dihydroquinolin-5-yl)ethyl)amino)methyl)benzamido)cyclobutyl)amino)-2-oxoethoxy)phenyl)-2-hydroxy-2-phenylacetate], the IC50 was 0.3 to 3 nM in test [1] and less than 0.3 nM in test [2].
In the same order, the values of `COc1cc(C(=O)N[C@H]2C[C@H](NC(=O)COc3cccc([C@](O)(C(=O)OCC4CCN(Cc5ccccc5)CC4)c4ccccc4)c3)C2)c(Cl)cc1CNC[C@H](O)c1ccc(O)c2[nH]c(=O)ccc12` [Compound 137, (1-benzylpiperidin-4-yl)methyl (S)-2-(3-(2-(((1R,3S)-3-(2-chloro-4-((((R)-2-hydroxy-2-(8-hydroxy-2-oxo-1,2-dihydroquinolin-5-yl)ethyl)amino)methyl)-5-methoxybenzamido)cyclobutyl)amino)-2-oxoethoxy)phenyl)-2-hydroxy-2-phenylacetate] are 0.3 to 3 nM and less than 0.3 nM.
As to `O=C(COc1cccc([C@](O)(C(=O)OCC2CCN(Cc3ccccc3)CC2)c2ccccc2)c1)N[C@H]1C[C@H](NC(=O)c2ccc(CNC[C@H](O)c3ccc(O)c4[nH]c(=O)ccc34)c(C(F)(F)F)c2)C1` [Compound 138, (1-benzylpiperidin-4-yl)methyl (S)-2-hydroxy-2-(3-(2-(((1R,3S)-3-(4-((((R)-2-hydroxy-2-(8-hydroxy-2-oxo-1,2-dihydroquinolin-5-yl)ethyl)amino)methyl)-3-(trifluoromethyl)benzamido)cyclobutyl)amino)-2-oxoethoxy)phenyl)-2-phenylacetate], the IC50 in test [1] and in test [2] was 0.3 to 3 nM throughout.
Regarding `COc1c(CNC[C@H](O)c2ccc(O)c3[nH]c(=O)ccc23)ccc(C(=O)N[C@H]2C[C@H](NC(=O)COc3cccc([C@](O)(C(=O)OCC4CCN(Cc5ccccc5)CC4)c4ccccc4)c3)C2)c1F` [Compound 139, (1-benzylpiperidin-4-yl)methyl (S)-2-(3-(2-(((1R,3S)-3-(2-fluoro-4-((((R)-2-hydroxy-2-(8-hydroxy-2-oxo-1,2-dihydroquinolin-5-yl)ethyl)amino)methyl)-3-methoxybenzamido)cyclobutyl)amino)-2-oxoethoxy)phenyl)-2-hydroxy-2-phenylacetate], the values for the IC50 in test [1] and in test [2] were 0.3 to 3 nM and less than 0.3 nM, respectively.
The matching figures for `CCOc1cc(C(=O)N[C@H]2C[C@H](NC(=O)COc3cccc([C@](O)(C(=O)OCC4CCN(Cc5ccccc5)CC4)c4ccccc4)c3)C2)ccc1CNC[C@H](O)c1ccc(O)c2[nH]c(=O)ccc12` [Compound 140, (1-benzylpiperidin-4-yl)methyl (S)-2-(3-(2-(((1R,3S)-3-(3-ethoxy-4-((((R)-2-hydroxy-2-(8-hydroxy-2-oxo-1,2-dihydroquinolin-5-yl)ethyl)amino)methyl)benzamido)cyclobutyl)amino)-2-oxoethoxy)phenyl)-2-hydroxy-2-phenylacetate]: 0.3 to 3 nM and 0.3 to 3 nM.
In the same order, the values of `O=C(COc1cccc([C@](O)(C(=O)OCC2CCN(Cc3ccccc3)CC2)c2ccccc2)c1)N[C@H]1C[C@H](NC(=O)c2ccc(CNC[C@H](O)c3ccc(O)c4[nH]c(=O)ccc34)c(OC(F)(F)F)c2)C1` [Compound 141, (1-benzylpiperidin-4-yl)methyl (S)-2-hydroxy-2-(3-(2-(((1R,3S)-3-(4-((((R)-2-hydroxy-2-(8-hydroxy-2-oxo-1,2-dihydroquinolin-5-yl)ethyl)amino)methyl)-3-(trifluoromethoxy)benzamido)cyclobutyl)amino)-2-oxoethoxy)phenyl)-2-phenylacetate] are 0.3 to 3 nM and 0.3 to 3 nM.
`COc1cc(C(=O)N[C@H]2C[C@H](NC(=O)COc3cccc([C@](O)(C(=O)OCC4CCN(Cc5ccccc5)CC4)c4ccccc4)c3)C2)c(F)cc1CNC[C@H](O)c1ccc(O)c2[nH]c(=O)ccc12` [Compound 142, (1-benzylpiperidin-4-yl)methyl (S)-2-(3-(2-(((1R,3S)-3-(2-fluoro-4-((((R)-2-hydroxy-2-(8-hydroxy-2-oxo-1,2-dihydroquinolin-5-yl)ethyl)amino)methyl)-5-methoxybenzamido)cyclobutyl)amino)-2-oxoethoxy)phenyl)-2-hydroxy-2-phenylacetate]: the IC50 is 0.3 to 3 nM in test [1] and less than 0.3 nM in test [2].
As to `CC(C)Oc1cc(C(=O)N[C@H]2C[C@H](NC(=O)COc3cccc([C@](O)(C(=O)OCC4CCN(Cc5ccccc5)CC4)c4ccccc4)c3)C2)ccc1CNC[C@H](O)c1ccc(O)c2[nH]c(=O)ccc12` [Compound 143, (1-benzylpiperidin-4-yl)methyl (S)-2-hydroxy-2-(3-(2-(((1R,3S)-3-(4-((((R)-2-hydroxy-2-(8-hydroxy-2-oxo-1,2-dihydroquinolin-5-yl)ethyl)amino)methyl)-3-isopropoxybenzamido)cyclobutyl)amino)-2-oxoethoxy)phenyl)-2-phenylacetate], the IC50 in test [1] and in test [2] was 0.3 to 3 nM in each case.
`O=C(COc1cccc([C@](O)(C(=O)OCC2CCN(Cc3ccccc3)CC2)c2ccccc2)c1)N[C@H]1C[C@H](NC(=O)c2ccc(CNC[C@H](O)c3ccc(O)c4[nH]c(=O)ccc34)cn2)C1` [Compound 144, (1-benzylpiperidin-4-yl)methyl (S)-2-hydroxy-2-(3-(2-(((1R,3S)-3-(5-((((R)-2-hydroxy-2-(8-hydroxy-2-oxo-1,2-dihydroquinolin-5-yl)ethyl)amino)methyl)picolinamido)cyclobutyl)amino)-2-oxoethoxy)phenyl)-2-phenylacetate]: the IC50 in test [1] was 0.3 to 3 nM; in test [2], less than 0.3 nM.
The matching figures for `O=C(COc1cccc([C@](O)(C(=O)OCC2CCN(Cc3ccccc3)CC2)c2ccccc2)c1)N[C@H]1C[C@H](NC(=O)c2ccc(CNC[C@H](O)c3ccc(O)c4[nH]c(=O)ccc34)nc2)C1` [Compound 145, (1-benzylpiperidin-4-yl)methyl (S)-2-hydroxy-2-(3-(2-(((1R,3S)-3-(6-((((R)-2-hydroxy-2-(8-hydroxy-2-oxo-1,2-dihydroquinolin-5-yl)ethyl)amino)methyl)nicotinamido)cyclobutyl)amino)-2-oxoethoxy)phenyl)-2-phenylacetate]: 0.3 to 3 nM and 0.3 to 3 nM.

These data come from US9579314B2 (priority 2015, dated 2017).
